Data: paper PMC10465233, “Lys-urea-Aad, Lys-urea-Cmc and Lys-urea-Cms as potential pharmacophores for the design of PSMA-targeted radioligands to reduce off-target uptake in kidneys and salivary glands” (Theranostics, 2023)

Molecular target: T1, PSMA (Homo sapiens, UniProt Q04609)
T1 construct: host or cells: LNCaP prostate cancer cells
Assay: In vitro competition binding assay, LNCaP cells, [^18F]DCFPyL as radioligand
Description: The LNCaP cells obtained from ATCC (via Cedarlane, Burlington, Canada) were cultured in RPMI 1640 medium supplemented with 10% FBS, penicillin (100 U/mL) and streptomycin (100 μg/mL) at 37 °C in a Panasonic Healthcare (Tokyo, Japan) MCO-19AIC humidified incubator containing 5% CO2. The cells were confirmed pathogen free by the IMPACT Rodent Pathogen Test (IDEXX BioAnalytics). Cells grown to 80-90% confluence were then washed with sterile PBS and collected after trypsinization. The cell concentration was counted in triplicate using a hemocytometer and a manual laboratory counter.
In vitro competition binding assays were conducted as previously reported using LNCaP prostate cancer cells and [^18F]DCFPyL as the radioligand [10]-[12],[14]. Briefly, LNCaP cells (400,000/well) were plated onto a 24-well poly-D-lysine coated plate for 48 h. Growth media was removed and replaced with HEPES buffered saline (50 mM HEPES, pH 7.5, 0.9% sodium chloride) and the cells were incubated for 1 h at 37 °C. [^18F]DCFPyL (0.1 nM) was added to each well (in triplicate) containing various concentrations (0.5 mM - 0.05 nM) of tested ligands. Non-specific binding was determined in the presence of 10 µM non-radiolabeled DCFPyL. The assay mixtures were further incubated for 1 h at 37 °C with gentle agitation. Then, the buffer and hot ligand were removed, and cells were washed twice with cold HEPES buffered saline. To harvest the cells, 400 µL of 0.25% trypsin solution was added to each well. Radioactivity was measured on an automatic gamma counter. Nonlinear regression analyses and Ki calculations were performed using the GraphPad Prism 7 software.

T1 sequence (Q04609 whole entry): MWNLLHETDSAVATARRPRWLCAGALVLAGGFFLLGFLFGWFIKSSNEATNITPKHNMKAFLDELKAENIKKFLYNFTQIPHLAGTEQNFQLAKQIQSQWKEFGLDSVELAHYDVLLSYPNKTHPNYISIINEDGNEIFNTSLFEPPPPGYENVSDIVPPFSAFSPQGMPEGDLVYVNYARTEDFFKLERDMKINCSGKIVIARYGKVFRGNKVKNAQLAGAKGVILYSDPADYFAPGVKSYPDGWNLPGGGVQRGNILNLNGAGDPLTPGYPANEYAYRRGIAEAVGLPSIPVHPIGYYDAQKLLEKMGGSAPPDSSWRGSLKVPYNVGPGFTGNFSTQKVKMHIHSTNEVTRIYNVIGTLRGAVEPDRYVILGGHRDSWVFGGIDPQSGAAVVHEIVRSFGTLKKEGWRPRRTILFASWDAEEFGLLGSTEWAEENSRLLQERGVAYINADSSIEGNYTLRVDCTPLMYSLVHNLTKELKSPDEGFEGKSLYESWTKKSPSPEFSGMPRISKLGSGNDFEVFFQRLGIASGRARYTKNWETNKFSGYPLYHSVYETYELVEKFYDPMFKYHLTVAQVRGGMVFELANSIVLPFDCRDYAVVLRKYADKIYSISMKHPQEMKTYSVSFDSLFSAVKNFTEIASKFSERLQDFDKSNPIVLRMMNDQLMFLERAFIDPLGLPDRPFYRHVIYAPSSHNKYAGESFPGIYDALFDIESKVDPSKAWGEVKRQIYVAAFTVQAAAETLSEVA

SMILES: O=C([O-])CN1CCN(CC(=O)[O-])CCN(CC(=O)NCC2CCC(C(=O)NC(Cc3c4ccccc4cc4ccccc34)C(=O)NCCCCC(NC(=O)NC(CSCC(=O)O)C(=O)O)C(=O)O)CC2)CCN(CC(=O)[O-])CC1.[Ga+3] (centres unmarked) [Ga-HTK03177]
- Ki: 5 ± 2.4 nM

SMILES: O=C([O-])CN1CCN(CC(=O)[O-])CCN(CC(=O)NCC2CCC(C(=O)NC(Cc3c4ccccc4cc4ccccc34)C(=O)NCCCCC(NC(=O)NC(COCC(=O)O)C(=O)O)C(=O)O)CC2)CCN(CC(=O)[O-])CC1.[Ga+3] (centres unmarked) [Ga-HTK03187]
- Ki: 10.6 ± 2 nM

SMILES: COc1ccc(CCCC(=O)NCC(=O)N[C@@H](CCCCNC(=O)CN2CCN(CC(=O)[O-])CCN(CC(=O)[O-])CCN(CC(=O)[O-])CC2)C(=O)NC[C@H]2CC[C@H](C(=O)N[C@@H](Cc3c4ccccc4cc4ccccc34)C(=O)NCCCC[C@H](NC(=O)N[C@@H](CCCC(=O)O)C(=O)O)C(=O)O)CC2)cc1.[Lu+3] [Lu-HTK03170]
- Ki: 1.6 ± 0.4 nM

SMILES: COc1ccc(CCCC(=O)NCC(=O)N[C@@H](CCCCNC(=O)CN2CCN(CC(=O)[O-])CCN(CC(=O)[O-])CCN(CC(=O)[O-])CC2)C(=O)NC[C@H]2CC[C@H](C(=O)N[C@@H](Cc3c4ccccc4cc4ccccc34)C(=O)NCCCC[C@H](NC(=O)N[C@@H](COCC(=O)O)C(=O)O)C(=O)O)CC2)cc1.[Lu+3] [Lu-HTK04028]
- Ki: 13.9 ± 3.2 nM

SMILES: COc1ccc(CCCC(=O)NCC(=O)N[C@@H](CCCCNC(=O)CN2CCN(CC(=O)[O-])CCN(CC(=O)[O-])CCN(CC(=O)[O-])CC2)C(=O)NC[C@H]2CC[C@H](C(=O)N[C@@H](Cc3c4ccccc4cc4ccccc34)C(=O)NCCCC[C@H](NC(=O)N[C@@H](CSCC(=O)O)C(=O)O)C(=O)O)CC2)cc1.[Lu+3] [Lu-HTK04048]
- Ki: 1.4 ± 1 nM
